Laboratory results reported in PMC9623604 (European journal of pharmacology, 2022).

Biological target: mitochondrial complex I (NADH:ubiquinone oxidoreductase) (Mus musculus, UniProt P03888+Q91WD5+Q9DC70)
Type: biochemical

CN(C)C(=N)N=C(N)N [metformin]
IC50: ~2000 µM
